Source: PubChem BioAssay (NCI)
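All cell lines were grown in 96-well plates and treated with compound for 48 hours. TGI: concentration producing complete growth inhibition.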

Key:
Assay in all cases: NCI tumour cell line growth inhibition, 48 h
[1] = tested on: LXFL 529 NSCLC
[2] = tested on: DLD-1 colon
[3] = tested on: M19-MEL melanoma
[4] = tested on: RXF-631 renal
[5] = tested on: SNB-78 CNS
[6] = tested on: XF 498 CNS

Row | SMILES | TGI [1] [µM] | TGI [2] [µM] | TGI [3] [µM] | TGI [4] [µM] | TGI [5] [µM] | TGI [6] [µM]
1 | C=C(CN(C)C)C(=O)c1ccccc1Cl | 26 | 36.3 | 33.4 | 37.8 | 83.1 | 
2 | OC1CCSc2ccccc21 (configuration not stated) | > 100 | > 100 | > 100 |  |  | > 100
3 | CC(C)C(=O)CC(c1ccc(Br)cc1)N1N=C(C(C)C)CC1c1ccc(Br)cc1 (configuration not stated) | > 100 |  | > 100 |  |  | 59
